Experimental data from patent US9540385B2, “Pyrrolopyrimidine compounds as kinase inhibitors” (Pharmacyclics LLC, priority 2012, dated 2017).

Molecular target: T1, BTK (Homo sapiens, UniProt Q06187)
T1 construct: purified from insect cells as a full-length construct containing a N-terminal 6×-His tag; His6 (N); made in house; host or cells: insect cells (baculovirus, Sf21)
Test: Btk in vitro inhibitory activity / inhibition of a panel of kinases (TR-FRET, mobility shift or radiometric filter binding)
Format: biochemical
Conditions: kinase assay by one of methods A, B or C
Method: Btk kinase activity is determined using a time-resolved fluorescence resonance energy transfer (TR-FRET) methodology. Measurements are performed in a reaction volume of 50 μL using 96-well assay plates. Kinase enzyme, inhibitor, ATP (at the Km for the kinase), and 1 μM peptide substrate (Biotin-AVLESEEELYSSARQ-NH2) are incubated in a reaction buffer composed of 20 mM Tris, 50 mM NaCl, MgCl2 (5-25 mM depending on the kinase), MnCl2 (0-10 mM), 1 mM DTT, 0.1 mM EDTA, 0.01% bovine serum albumin, 0.005% Tween-20, and 10% DMSO at pH 7.4 for one hour. The reaction is quenched by the addition of 1.2 equivalents of EDTA (relative to divalent cation) in 25 μL of 1× Lance buffer (Perkin-Elmer). Streptavidin-APC (Perkin-Elmer) and Eu-labeled p-Tyr100 antibody (Perkin-Elmer) in 1× Lance buffer are added in a 25 μL volume to give final concentrations of 100 nM and 2.5 nM, respectively, and the mixture is allowed to incubate for one hour. The TR-FRET signal is measured on a multimode plate reader with an excitation wavelength (λEx) of 330 nm and detection wavelengths (λEm) of 615 and 665 nm. Activity is determined by the ratio of the fluorescence at 665 nm to that at 615 nm. For each compound, enzyme activity is measured at various concentrations of compound. Negative control reactions are performed in the absence of inhibitor in replicates of six, and two no-enzyme controls are used to determine baseline fluorescence levels. Inhibition constants, Ki(app), ware obtained using the program BatchKi (Kuzmic et al. (2000), Anal. Biochem. 286:45-50). IC50s are obtained according to the equation: IC50={Ki(app)/(1+[ATP]/Km^ATP)}+[E]total/2;
For all kinases, [ATP]=Km^ATP, [Btk]total=0.5 nM and [Lck]total=6 nM.
Kinase activity is measured in vitro using electrophoretic mobility shift assay. The kinase reactions are assembled in a total volume of 25 μL in 384 well plates. The reactions comprise: BTK enzyme (1 nM, N-terminal His6-tagged, recombinant, full-length, human BTK purified from baculovirus Sf21 insect cell system), inhibitor, ATP ([…] the apparent Km for the kinase), fluorescently labeled peptide substrate (1 μM, FAM-GEEPLYWSFPAKKK-NH2) in a reaction buffer composed of 100 mM HEPES, pH7.5, 5 mM MgCl2 1 mM DTT, 0.1% bovine serum albumin, 0.01% Triton X-100, and 1% DMSO. The reaction is incubated for one hour and is quenched by the addition of 45 μL of termination buffer (100 mM HEPES, pH7.5, 0.01% Triton X-100, 30 mM EDTA). The terminated reactions are analyzed using 12 channel LabChip® 3000 microfluidic detection instrument (Caliper Life Sciences). The enzymatic phosphorylation of the peptide results in a change in net charge, enabling electrophoretic separation of product from substrate peptide. As substrate and product peptides are separated, two peaks of fluorescence are observed. Change in the relative fluorescence intensity of the substrate and product peaks is the parameter measured, reflecting enzyme activity. In the presence of an inhibitor, the ratio between product and substrate is altered: the signal of the product decreases, while the signal of the substrate increases.
Activity in each sample is determined as the product to sum ratio (PSR):P/(S+P), where P is the peak height of the product peptide and S is the peak height of the substrate peptide. For each compound, enzyme activity is measured at various concentrations (12 concentrations of compound spaced by 3× dilution intervals). Negative control samples (0%-inhibition in the absence of inhibitor) and positive control samples (100%-inhibition, in the presence of 20 mM EDTA) are assembled in replicates of four and are used to calculate %-inhibition values for each inhibitor at each concentration. Percent inhibition (Pinh) is determined using following equation: […]

T1 sequence (Q06187 whole entry): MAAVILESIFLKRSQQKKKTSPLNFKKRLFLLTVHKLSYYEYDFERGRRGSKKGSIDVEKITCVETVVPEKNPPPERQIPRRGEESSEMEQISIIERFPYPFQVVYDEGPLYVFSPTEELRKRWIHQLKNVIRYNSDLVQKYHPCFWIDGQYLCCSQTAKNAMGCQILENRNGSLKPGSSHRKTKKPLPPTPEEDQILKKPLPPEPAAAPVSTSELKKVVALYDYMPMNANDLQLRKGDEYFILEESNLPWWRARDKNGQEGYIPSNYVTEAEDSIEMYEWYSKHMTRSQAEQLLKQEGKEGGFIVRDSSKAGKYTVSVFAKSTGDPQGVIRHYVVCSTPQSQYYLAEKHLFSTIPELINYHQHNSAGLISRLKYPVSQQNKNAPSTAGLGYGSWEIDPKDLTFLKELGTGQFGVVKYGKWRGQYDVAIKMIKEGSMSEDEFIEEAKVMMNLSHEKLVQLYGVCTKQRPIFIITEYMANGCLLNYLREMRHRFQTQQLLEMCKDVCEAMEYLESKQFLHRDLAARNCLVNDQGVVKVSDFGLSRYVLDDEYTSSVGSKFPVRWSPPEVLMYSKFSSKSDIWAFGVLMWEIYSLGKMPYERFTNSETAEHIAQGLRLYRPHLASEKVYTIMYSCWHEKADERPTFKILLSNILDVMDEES

IC50, < 100 nM:
CN(C(=O)/C=C/CN(C)C1CC1)c1ccc(-n2c(Cl)c(-c3ccc(Cl)cc3)c3c(N)ncnc32)cc1 [Compound 31, (E)-N-(4-(4-amino-6-chloro-5-(4-chlorophenyl)-7H-pyrrolo[2,3-d]pyrimidin-7-yl)phenyl)-4-(cyclopropyl(methyl)amino)-N-methylbut-2-enamide]
Cc1c(-c2ccc(Cl)cc2)c2c(N)ncnc2n1-c1cccc(N(C)C(=O)/C=C/CN(C)C2CC2)c1 [Compound 48, (E)-N-(3-(4-amino-5-(4-chlorophenyl)-6-methyl-7H-pyrrolo[2,3-d]pyrimidin-7-yl)phenyl)-4-(cyclopropyl(methyl)amino)-N-methylbut-2-enamide]
COCCN(C)C/C=C/C(=O)N1CC[C@@H](n2c(F)c(-c3ccc(Oc4ccccc4)cc3)c3c(N)ncnc32)C1 [Compound 49, (R,E)-1-(3-(4-amino-6-fluoro-5-(4-phenoxyphenyl)-7H-pyrrolo[2,3-d]pyrimidin-7-yl)pyrrolidin-1-yl)-4-((2-methoxyethyl)(methyl)amino)but-2-en-1-one]
Cc1c(-c2ccc(Oc3cccc(F)c3)cc2)c2c(N)ncnc2n1[C@@H]1CCN(C(=O)/C=C/CN(C)C2CC2)C1 [Compound 53, (R,E)-1-(3-(4-amino-5-(4-(3-fluorophenoxyl)phenyl)-6-methyl-7H-pyrrolo[2,3-d]pyrimidin-7-yl)pyrrolidin-1-yl)-4-(cyclopropyl(methyl)amino)but-2-en-1-one]
COCCN(C)C/C=C/C(=O)N1CC[C@@H](n2c(Cl)c(-c3ccc(Oc4ccccc4)cc3)c3c(N)ncnc32)C1 [Compound 55, (R,E)-1-(3-(4-amino-6-chloro-5-(4-phenoxyphenyl)-7H-pyrrolo[2,3-d]pyrimidin-7-yl)pyrrolidin-1-yl)-4-((2-methoxyethyl)(methyl)amino)but-2-en-1-one]
CN(C/C=C/C(=O)N1CC[C@@H](n2c(Cl)c(-c3ccc(Oc4ccccc4)cc3)c3c(N)ncnc32)C1)[C@H]1CCOC1 [Compound 56, (E)-1-((R)-3-(4-amino-6-chloro-5-(4-phenoxyphenyl)-7H-pyrrolo[2,3-d]pyrimidin-7-yl)pyrrolidin-1-yl)-4-(methyl((S)-tetrahydrofuran-3-yl)amino)but-2-en-1-one]
CN(C/C=C/C(=O)N1CC[C@@H](n2c(Cl)c(-c3ccc(Oc4ccccc4)cc3)c3c(N)ncnc32)C1)[C@@H]1CCOC1 [Compound 57, (E)-1-((R)-3-(4-amino-6-chloro-5-(4-phenoxyphenyl)-7H-pyrrolo[2,3-d]pyrimidin-7-yl)pyrrolidin-1-yl)-4-(methyl((R)-tetrahydrofuran-3-yl)amino)but-2-en-1-one]
CN(C/C=C/C(=O)N1CC[C@@H](n2c(Cl)c(-c3ccc(Oc4cccc(F)c4)cc3)c3c(N)ncnc32)C1)C1CC1 [Compound 60, (R,E)-1-(3-(4-amino-6-chloro-5-(4-(3-fluorophenoxy)phenyl)-7H-pyrrolo[2,3-d]pyrimidin-7-yl)pyrrolidin-1-yl)-4-(cyclopropyl(methyl)amino)but-2-en-1-one]
COCCN(C)C/C=C/C(=O)N1CC[C@@H](n2c(C)c(-c3ccc(Oc4ccccc4)cc3)c3c(N)ncnc32)C1 [Compound 61, (R,E)-1-(3-(4-amino-6-methyl-5-(4-phenoxyphenyl)-7H-pyrrolo[2,3-d]pyrimidin-7-yl)pyrrolidin-1-yl)-4-((2-methoxyethyl)(methyl)amino)but-2-en-1-one]
Cc1c(-c2ccc(Oc3ccccc3)cc2)c2c(N)ncnc2n1C1CCN(C(=O)/C=C/CN(C)C2CC2)CC1 [Compound 67, (E)-1-(4-(4-amino-6-methyl-5-(4-phenoxyphenyl)-7H-pyrrolo[2,3-d]pyrimidin-7-yl)piperidin-1-yl)-4-(cyclopropyl(methyl)amino)but-2-en-1-one]
